From ChEMBL document CHEMBL1148542, “Synthesis of a novel biotin-tagged photoaffinity probe for VEGF receptor tyrosine kinases” (Bioorg Med Chem Lett, 2006)

Assays:
[1] = target: Vascular endothelial growth factor receptor 2 (Homo sapiens, UniProt P35968); test: Inhibitory activity against VEGFR2 kinase
[2] = target: Vascular endothelial growth factor receptor (Homo sapiens, UniProt P17948+P35916+P35968); test: Inhibitory activity against VEGF-stimulated proliferation in HUVEC; format: functional

Vascular endothelial growth factor receptor 2, sequence (P35968 whole entry): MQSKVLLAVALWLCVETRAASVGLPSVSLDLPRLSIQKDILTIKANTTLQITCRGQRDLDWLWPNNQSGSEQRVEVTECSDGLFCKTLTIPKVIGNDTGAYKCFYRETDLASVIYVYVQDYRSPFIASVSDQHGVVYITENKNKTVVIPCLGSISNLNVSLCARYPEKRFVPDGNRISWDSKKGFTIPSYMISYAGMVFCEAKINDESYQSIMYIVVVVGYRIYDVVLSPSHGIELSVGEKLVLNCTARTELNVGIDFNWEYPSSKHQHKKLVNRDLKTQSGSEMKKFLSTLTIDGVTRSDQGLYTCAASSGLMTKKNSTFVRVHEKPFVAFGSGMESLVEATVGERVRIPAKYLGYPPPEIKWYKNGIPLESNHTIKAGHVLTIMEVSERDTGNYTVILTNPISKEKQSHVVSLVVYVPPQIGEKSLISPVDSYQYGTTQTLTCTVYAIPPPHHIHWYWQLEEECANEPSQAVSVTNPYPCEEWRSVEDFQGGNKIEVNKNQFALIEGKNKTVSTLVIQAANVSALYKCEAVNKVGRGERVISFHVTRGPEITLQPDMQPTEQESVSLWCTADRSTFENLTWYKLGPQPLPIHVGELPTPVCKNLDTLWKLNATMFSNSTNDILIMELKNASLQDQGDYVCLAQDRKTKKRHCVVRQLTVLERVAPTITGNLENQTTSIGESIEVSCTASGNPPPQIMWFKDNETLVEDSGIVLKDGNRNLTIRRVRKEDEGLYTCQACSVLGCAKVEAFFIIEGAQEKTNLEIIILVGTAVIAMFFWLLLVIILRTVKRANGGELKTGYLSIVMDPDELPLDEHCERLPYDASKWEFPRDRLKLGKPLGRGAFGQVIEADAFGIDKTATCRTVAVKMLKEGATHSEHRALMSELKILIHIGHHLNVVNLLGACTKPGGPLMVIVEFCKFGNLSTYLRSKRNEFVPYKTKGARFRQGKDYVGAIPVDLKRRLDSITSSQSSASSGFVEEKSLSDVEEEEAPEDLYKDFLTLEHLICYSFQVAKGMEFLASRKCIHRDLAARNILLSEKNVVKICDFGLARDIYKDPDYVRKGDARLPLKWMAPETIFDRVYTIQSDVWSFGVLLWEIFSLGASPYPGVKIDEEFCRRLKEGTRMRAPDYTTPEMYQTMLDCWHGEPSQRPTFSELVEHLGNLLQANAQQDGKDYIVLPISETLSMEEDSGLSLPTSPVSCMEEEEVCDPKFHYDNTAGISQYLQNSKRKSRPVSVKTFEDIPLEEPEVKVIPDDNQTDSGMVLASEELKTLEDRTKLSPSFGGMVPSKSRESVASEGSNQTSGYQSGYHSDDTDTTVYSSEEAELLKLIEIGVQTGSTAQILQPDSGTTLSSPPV

Row | Structure (SMILES) | IC50 [1] [µM] | IC50 [2] [µM]
1 | COc1cc2ncnc(Nc3ccc(Cl)cc3F)c2cc1OC | 1.5 | 
2 | COc1cc2c(Nc3ccc(Cl)cc3F)ncnc2cc1OCCOCCNC(=O)C(CCCCNC(=O)CCCCC1SCC2NC(=O)NC21)NC(=O)c1c(F)c(F)c(N=[N+]=[N-])c(F)c1F (stereo unspecified) | 7.1 | 40.3
3 | COc1cc2c(Nc3ccc(Cl)cc3F)ncnc2cc1OCCOCCNC(=O)c1c(F)c(F)c(N=[N+]=[N-])c(F)c1F | < 1 | 3.2
4 | COc1cc2c(Nc3ccc(Cl)cc3F)ncnc2cc1OCCOCCNC(=O)CCCCC1SCC2NC(=O)NC21 (stereo unspecified) | 1.5 | 1.9
5 | COc1cc2c(Nc3ccc(Cl)cc3F)ncnc2cc1OCCNC(=O)CCCCC1SCC2NC(=O)NC21 (stereo unspecified) | 4.8 | 14.7
6 | COc1cc2c(Nc3ccc(Cl)cc3F)ncnc2cc1OCCNC(=O)c1c(F)c(F)c(N=[N+]=[N-])c(F)c1F | < 1 | 4.1
